Square brackets hold non-standard residues; d marks the D form. Peptide text beside a SMILES is read from it. pGlu = O=C1CC[C@@H](C(=O)O)N1
Molecular target: Gonadotropin-releasing hormone receptor (Rattus norvegicus) (UniProt P30969)
Sequence (P30969 whole entry, looked up): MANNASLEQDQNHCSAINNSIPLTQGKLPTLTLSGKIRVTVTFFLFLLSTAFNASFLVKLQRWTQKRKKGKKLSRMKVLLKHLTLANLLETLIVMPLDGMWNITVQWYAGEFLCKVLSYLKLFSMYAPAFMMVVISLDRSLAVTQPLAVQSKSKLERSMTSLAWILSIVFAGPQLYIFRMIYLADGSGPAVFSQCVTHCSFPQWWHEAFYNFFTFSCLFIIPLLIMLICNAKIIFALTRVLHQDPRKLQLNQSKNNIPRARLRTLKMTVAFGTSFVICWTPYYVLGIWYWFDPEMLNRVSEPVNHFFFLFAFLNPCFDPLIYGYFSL

CCNC(=O)[C@@H]1CCCN1C(=O)[C@H](CCCN=C(N)N)NC(=O)[C@H](CC(C)C)NC(=O)[C@@H](CC(C)C)NC(=O)[C@H](Cc1ccc(O)cc1)NC(=O)[C@H](CO)NC(=O)[C@H](Cc1c[nH]c2ccccc12)NC(=O)[C@H](Cc1ccccc1)NC(=O)[C@@H]1CCC(=O)N1 [leuprolide 2 Phe] ([pGlu]FWSY[dL]LRP-NHEt)
Ki: 2.19 nM

CCNC(=O)[C@@H]1CCCN1C(=O)[C@H](CCCN=C(N)N)N(C)C(=O)[C@H](CC(C)C)NC(=O)[C@@H](Cc1c[nH]c2ccccc12)NC(=O)[C@H](Cc1ccc(O)cc1)NC(=O)[C@H](CO)NC(=O)[C@H](Cc1c[nH]c2ccccc12)NC(=O)[C@H](Cc1cnc[nH]1)NC(=O)[C@@H]1CCC(=O)N1 [deslorelin 8NMeArg]
Ki: 0.31 nM

CCNC(=O)[C@@H]1CCCN1C(=O)[C@H](CCCN=C(N)N)NC(=O)[C@H](CC(C)C)NC(=O)[C@@H](Cc1c[nH]c2ccccc12)NC(=O)[C@H](Cc1ccc(O)cc1)NC(=O)[C@H](CO)NC(=O)[C@H](Cc1c[nH]c2ccccc12)NC(=O)[C@H](Cc1cnc[nH]1)N(C)C(=O)[C@@H]1CCC(=O)N1 [deslorelin 2NMeHis]
Ki: 1.41 nM

CC(C)C[C@H](NC(=O)[C@@H](Cc1ccc2ccccc2c1)NC(=O)[C@H](Cc1ccc(O)cc1)NC(=O)[C@H](CO)NC(=O)[C@H](Cc1c[nH]c2ccccc12)NC(=O)[C@H](Cc1c[nH]cn1)NC(=O)[C@@H]1CCC(=O)N1)C(=O)N[C@@H](CCCNC(=N)N)C(=O)N1CCC[C@H]1C(=O)NCC(N)=O [nafarelin]
Ki: 0.01 nM

CC(C)C[C@H](NC(=O)CNC(=O)[C@H](Cc1ccc(O)cc1)NC(=O)[C@H](CO)NC(=O)[C@H](Cc1c[nH]c2ccccc12)NC(=O)[C@H](Cc1cnc[nH]1)NC(=O)[C@@H]1CCC(=O)N1)C(=O)N[C@@H](CCCN=C(N)N)C(=O)N1CCC[C@H]1C(=O)NCC(=O)O [CAS_35263-73-1]
Ki: 1.26 nM

CCNC(=O)[C@@H]1CCCN1C(=O)[C@H](CCCN=C(N)N)NC(=O)[C@H](CC(C)C)NC(=O)[C@@H](CC(C)C)NC(=O)[C@H](Cc1ccc(O)cc1)NC(=O)[C@H](CO)NC(=O)[C@H](Cc1cccc2ccccc12)N(C)C(=O)[C@H](Cc1c[nH]cn1)NC(=O)[C@@H]1CCC(=O)N1 [leuprolide 3NMe1Nal]
Ki: 3.24 nM

CC(C)C[C@H](NC(=O)[C@@H](Cc1ccc2ccccc2c1)NC(=O)[C@H](Cc1ccc(O)cc1)NC(=O)[C@H](CO)N(C)C(=O)[C@H](Cc1c[nH]c2ccccc12)NC(=O)[C@H](Cc1c[nH]cn1)NC(=O)[C@@H]1CCC(=O)N1)C(=O)N[C@@H](CCCN=C(N)N)C(=O)N1CCC[C@H]1C(=O)NCC(N)=O [nafarelin 4NMeSer]
Ki: 0.04 nM

CCNC(=O)[C@@H]1CCCN1C(=O)[C@H](CCCN=C(N)N)NC(=O)[C@H](CC(C)C)N(C)C(=O)[C@@H](CC(C)C)NC(=O)[C@H](Cc1ccc(O)cc1)NC(=O)[C@H](CO)NC(=O)[C@H](Cc1c[nH]c2ccccc12)NC(=O)[C@H](Cc1c[nH]cn1)NC(=O)[C@@H]1CCC(=O)N1 [leuprolide 7NMeLeu]
Ki: 0.16 nM

CCNC(=O)[C@@H]1CCCN1C(=O)[C@H](CCCN=C(N)N)NC(=O)[C@H](CC(C)C)NC(=O)[C@@H](Cc1c[nH]c2ccccc12)NC(=O)[C@H](Cc1ccc(O)cc1)NC(=O)[C@H](CO)NC(=O)[C@H](Cc1cccc2ccccc12)N(C)C(=O)[C@H](Cc1c[nH]cn1)NC(=O)[C@@H]1CCC(=O)N1 [deslorelin 3NMe1Nal]
Ki: 1 nM

CCNC(=O)[C@@H]1CCCN1C(=O)[C@H](CCCN=C(N)N)NC(=O)[C@H](CC(C)C)NC(=O)[C@@H](CC(C)C)N(C)C(=O)[C@H](Cc1ccc(O)cc1)NC(=O)[C@H](CO)NC(=O)[C@H](Cc1c[nH]c2ccccc12)NC(=O)[C@H](Cc1cnc[nH]1)NC(=O)[C@@H]1CCC(=O)N1 [leuprolide 6NMeDLeu]
Ki: 3.8 nM

CCNC(=O)[C@@H]1CCCN1C(=O)[C@H](CCCN=C(N)N)NC(=O)[C@H](CC(C)C)NC(=O)[C@@H](Cc1c[nH]c2ccccc12)NC(=O)[C@H](Cc1ccc(O)cc1)NC(=O)[C@H](CO)NC(=O)[C@H](Cc1cccc2ccccc12)NC(=O)[C@H](Cc1cnc[nH]1)NC(=O)[C@@H]1CCC(=O)N1 [deslorelin 31Nal]
Ki: 0.02 nM

From BindingDB's records for doi:10.1021/jm00055a007 (Abbott Laboratories, 1993)
